The values that follow come from patent publication US20170296491A1, “PHARMACEUTICAL COMPOSITIONS COMPRISING LEVODOPA AMIDE AND USES THEREOF” (priority 2015, published 2017).

The nature of data set [1]: Plasma levels of LDA and LD after intravenous LDA-HCl in mice. It counts as in vivo. How it is done: (§1) The purpose of this experiment was to determine the plasma levels of LDA and LD following intravenous (IV) and oral (PO) administration of LDA-HCl in CD-1 mice.
(§2) CD-1 mice which were prepared for oral administration had to undergo fasting overnight prior to the dosing. The orally treated mice received food only 2 hour post-dosing. The method used to dose orally was oesophagotubage, and the IV mice were injected via a jugular vein under anesthesia (Isoflurane/O2). LDA-HCl solutions were dissolved in citrate buffer and LD/CD solution was prepared according to International Publication No. WO 2010/134074.
(§3) Blood samples were collected following the oral and IV dosing at pre-determined time points and plasma levels of LDA and LD were analysed by LC-MS-MS.

For data set [2] the following is noted: peripheral administration; cited from earlier work.
A short description of data set [3]: Effect of preparation method and pH on stability of LDA-HCl/CD formulations. It counts as physicochemical. Particulars: 5 days at room temperature (Table 7). How it is done:
LDA-HCl/CD formulations were prepared by the following methods, and were then tested for stability. Method 1. Carbidopa (CD, powder) [Teva Pharmaceuticals Ltd., Israel] was added to LDA-HCl solution. […] Precipitation occurred at room temperature. Method 2. Liquid CD formulations were prepared by weighting CD [Teva Pharmaceuticals Ltd., Israel] in a suitable container with different L-arginine [Merck] weights to obtain a final concentration of 0.8% CD (wet form, 0.75% dry form) in different molar ratios to arginine (Table 6). CD formulations were prepared as described in the International Publication No. WO 2010/134074. LDA-HCl (powder) was added to CD solutions to attain the final desired concentration of LDA-HCl/CD formulations. Method 3. CD solutions (40 mg/ml, prepared as described in the International Publication No. WO 2010/134074) were mixed with LDA-HCl solutions to attain the final desired concentration of LDA/CD formulations. The LDA-HCl formulations were prepared by dissolving 200, 160 or 120 mg/ml of LDA-HCl in 40 mM citric buffer. The chemical stability of 7 LDA-HCl/CD formulations was evaluated by HPLC analysis at t0 and after 5 days at room temperature. The recovery after 5 days at room temperature was calculated compared to t0 (Table 7).

Data set [4] can be described thus: Plasma levels of LDA and LD after oral LDA-HCl in mice. Format: in vivo. How it is done:
as §1, §2, §3

Data set [5] can be described thus: Plasma pharmacokinetics of LDA and LD after oral LDA-HCl with and without CD in rats. Particulars: oral LDA-HCl 25 mg/kg. Format: in vivo. On the procedure:
The purpose of this experiment was to determine the plasma pharmacokinetics of LDA and LD following oral administration of LD or LDA-HCl with and without CD in Wistar rats.
Wistar rats underwent fasting overnight prior to the dosing and received food only 2 hour post-dosing. The method used to dose orally was via oesophagotubage. Solutions were prepared as described above.

A short description of data set [6]: Stability of LDA 200 mg/ml solution with HCl. It counts as physicochemical. On the procedure: The effect of HCl, representing an inorganic acid, on the stability of LDA solution was evaluated. HCl solution containing 0.3% Tween 80 was added to LDA to obtain a solution having a final LDA concentration of 200 mg/ml and a molar ratio of about 1:1 LDA:HCl. The physical stability of the solution and the chemical stability of LDA were evaluated (Table 13). As shown, LDA (200 mg/ml) is stable for at least 9 days in solution containing HCl at a molar ratio of about 1:1.

The nature of data set [7]: Dissolution and stability of LDA in organic acid solutions. Format: physicochemical. Particulars: for Chemical stability after 3 days at RT: in % (unit assumed). On the procedure:
The effect of organic acids on the stability of LDA solution was evaluated. Formulations were prepared by adding small aliquots of organic acid solutions, 100-300 μl, to ˜240 mg LDA until full dissolution while pH was monitored. The end point of acid addition was decided by appearance and/or by pH and/or total volume. LDA concentration was determined by HPLC.

Data set [8] can be described thus: Physical stability of LDA-HCl solutions with or without added CD-Arg formulation. It counts as physicochemical. Particulars: 0.75% CD; CD:Arg 1:1.25; LDA:HCl 1:0.92; pH 5.69; time points not separated. On the procedure:
HCl solutions at 3 different concentrations containing 0.3% Tween 80 were added to LDA to obtain solutions having a final LDA concentration of 200 mg/ml and a molar ratio of 1:0.89, 1:0.92 and 1:0.95 LDA:HCl. CD-Arg formulation (CD:Arg molar ratio 1:1.25) was prepared in Tween 80 0.3% and was added gradually under stirring to 4 volumes of each of the 3 LDA-HCl solutions. The physical stability of the solutions was evaluated (Table 15). As shown, the addition of CD to LDA-HCl solutions yielded stable solutions if added to LDA-HCl solutions having a pH>3.8, preferably pH >4.6.

Data set [9] is described as follows: Solubility of LDA in water in the absence of an acid. Particulars: water with and without 0.3% Tween-80, absence of an acid; data not shown. Format: physicochemical. From the text:
LDA in water with and without 0.3% Tween-80, at concentrations greater than 2.5% (data not shown), is not soluble in the absence of an acid.

As for `N[C@@H](Cc1ccc(O)c(O)c1)C(=O)O` [LD, L-3,4-dihydroxyphenylalanine, reference compound], the LD plasma level entry in data set [1] (IV LDA-HCl 20 mg/kg, 3 h thereafter) is reported as “below limit of quantification”. The “share of administered levodopa that enters the brain unaltered” value in data set [2] was 1-3%.
`NC(=O)C(N)Cc1ccc(O)c(O)c1` (stereo not drawn) [LDA, 2-amino-3-(3,4-dihydroxyphenyl)propanamide]: the “chemical stability in LDA-HCl/CD formulations” value in data set [3] is listed as “pH-dependent”. Besides, in data set [1] (IV LDA-HCl 20 mg/kg, 1 h thereafter), the LDA plasma level entry is given as “below limit of quantification”. The “metabolism of LDA to LD” value in data set [1] (IV administration of LDA-HCl 20 mg/kg), in data set [4] (oral administration of LDA-HCl 20 mg/kg) and in data set [5] was “rapidly metabolized to LD” throughout. The “half-life of LDA compared with LD” value in [1] (IV and oral administration of LDA-HCl) is given as “shorter than that of LD”. For the same compound, the bioavailability result in [4] (administered orally) was “low”. The “time stable in solution” value in [6] (HCl at a molar ratio of about 1:1) is reported as “at least 9 days”. Also, the “Chemical stability of LDA 9 days” value in data set [6] (LDA:HCl molar ratio 1:0.94, pH 5.81, 0.3% Tween 80, in % (unit assumed)) is listed as 100.1. In addition, the “Chemical stability after 3 days at RT” value stood at 98.4 in data set [7] (Acetic acid, LDA:acid 1:1.2, pH 5.0); 99.3 in data set [7] (Citric acid, LDA:acid 1:08, pH 2.8); 99.1 in [7] (Succinic acid, LDA:acid 1:0.5, pH 5.7); 100.5 in data set [7] (Tartaric acid, LDA:acid 1:0.6, pH 3.8). The “time physically and chemically stable at RT” value in [7] (LDA dissolved in organic acid solutions) is listed as “at least 3 days”. Moreover, the “LDA” value in data set [7] (dissolved with Acetic acid, pH 5.0) was 199 mg/mL; in data set [7] (dissolved with Citric acid, pH 2.8), 236 mg/mL; in data set [7] (dissolved with Citric acid, pH 5.6) it was 175 mg/mL; in [7] (dissolved with Glutamic acid, pH 5.8) it was 128 mg/mL; in [7] (dissolved with Succinic acid, pH 5.7) it was 194 mg/mL; in data set [7] (dissolved with Tartaric acid, pH 3.8) it was 334 mg/mL. The Precipitations entry in data set [8] is reported as “Slight”. Also, the “soluble concentration in water” value in data set [9] is not above 2.5%.
